{"source": "paper PMC6017357", "about": "“In Vitro Inhibitory Effects of Synthetic Cannabinoid EAM-2201 on Cytochrome P450 and UDP-Glucuronosyltransferase Enzyme Activities in Human Liver Microsomes” (Molecules : A Journal of Synthetic Chemistry and Natural …, 2018)", "key": {"[1]": {"conditions": "human liver microsomes; cited from earlier work"}, "CYP2C19": {"target": "CYP2C19 (Homo sapiens, UniProt P33261)", "sequence (P33261 whole entry)": "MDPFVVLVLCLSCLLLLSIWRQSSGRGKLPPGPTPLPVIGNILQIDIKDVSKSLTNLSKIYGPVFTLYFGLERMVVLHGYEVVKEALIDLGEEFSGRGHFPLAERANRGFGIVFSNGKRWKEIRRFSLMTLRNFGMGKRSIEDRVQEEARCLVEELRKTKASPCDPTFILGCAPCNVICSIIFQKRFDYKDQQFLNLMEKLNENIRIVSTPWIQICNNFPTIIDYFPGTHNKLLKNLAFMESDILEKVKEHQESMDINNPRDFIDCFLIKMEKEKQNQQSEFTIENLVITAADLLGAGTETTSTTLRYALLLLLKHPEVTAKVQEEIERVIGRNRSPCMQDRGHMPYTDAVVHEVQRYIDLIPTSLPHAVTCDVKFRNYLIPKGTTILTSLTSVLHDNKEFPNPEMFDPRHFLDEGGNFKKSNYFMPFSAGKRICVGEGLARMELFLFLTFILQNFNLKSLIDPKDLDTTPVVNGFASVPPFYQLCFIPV", "test": "CYP2C19-mediated [S]-mephenytoin 4′-hydroxylation in human liver microsomes (IC50 and time-dependent inhibition)", "type": "in vitro ADME", "set-up": "from tissue; host or cells: ultrapooled human liver microsomes", "description": "The inhibitory potential (IC50 values) of EAM-2201 on CYP1A2, CYP2A6, CYP2C8, CYP2C9, CYP2C19, CYP2D6 and CYP3A4 were evaluated using ultrapooled human liver microsomes and a cocktail of seven CYP substrates followed by LC-tandem mass spectrometry (LC-MS/MS) as previously described. Each incubation mixture was prepared in a total volume of 100 µL as follows: pooled human liver microsomes (5.2 pmol CYP), 1.0 mM NADPH, 10 mM magnesium chloride, 50 mM potassium phosphate buffer (pH 7.4), various concentrations of EAM-2201 in DMSO (final concentrations of 0.1–50 µM, 0.5% DMSO) and a cocktail of seven CYP probe substrates in 50% acetonitrile (0.5% acetonitrile), including 50 µM phenacetin, 2.5 µM coumarin, 2.0 µM amodiaquine, 10 µM diclofenac, 100 µM [S]-mephenytoin, 5 µM bufuralol and 2.5 µM midazolam in 50% acetonitrile. After a 3-min preincubation at 37 °C, the reactions were initiated by adding NADPH and incubation proceeded for 15 min at 37 °C in a shaking water bath. The reactions were stopped by adding 100 µL of ice-cold methanol containing internal standards (^13C2,^15N-acetaminophen for acetaminophen and N-desethylamodiaquine; d9-1′-hydroxybufuralol for 4′-hydroxydiclofenac, 7-hydroxycoumarin, 4′-hydroxymephenytoin, 1′-hydroxybufuralol and 1′-hydroxy-midazolam). The incubation mixtures were centrifuged at 13,000× g for 4 min at 4 °C and 50 µL of each supernatant was diluted in 50 µL of water. Aliquots (5 µL) of the diluted supernatants were analyzed using LC-MS/MS. All assays were performed in triplicate and the mean values were used in calculations. […] Each reaction was initiated by adding the seven-CYP probe substrate cocktail described above.\nThe time-dependent inhibitory effects of EAM-2201 on CYP2C8, CYP2C9, CYP2C19 and CYP3A4 activities in ultrapooled human liver microsomes were evaluated using time- and concentration-dependent inhibition assays. Ultrapooled human liver microsomes (26.0 pmol CYP) were pre-incubated with various concentrations of EAM-2201 in DMSO (0.5% DMSO) in 50 mM potassium phosphate buffer (pH 7.4) in the presence of NADPH for predetermined time periods: 5–15 min for CYP2C8 activity, 5–20 min for CYP2C9 activity and 15–40 min for CYP2C19 and CYP3A4 activities. […] Aliquots (5 µL) of the diluted supernatants were analyzed using LC-MS/MS.\nThe metabolites formed from CYP substrates were simultaneously quantified using our previously described LC-MS/MS method. […]"}}, "data": [{"smiles": "CCc1ccc(C(=O)c2cn(CCCCCF)c3ccccc23)c2ccccc12", "note": "[EAM-2201, (4-ethyl-1-naphthalenyl)[1-(5-fluoropentyl)-1H-indol-3-yl]-methanone]", "values": [{"measurement": "number of metabolites", "setting": "[1]", "result": 37, "unit": "metabolites"}, {"measurement": "IC50", "setting": "CYP2C19", "result": 10.9, "unit": "µM"}, {"measurement": "inactivation efficiency (kinact/Ki), CYP2C19", "setting": "CYP2C19; human liver microsomes", "result": 115, "unit": "M⁻¹ s⁻¹"}, {"measurement": "kinact", "setting": "CYP2C19; human, ultrapooled human liver microsomes, pH 7.4, probe [S]-mephenytoin (100 µM), 4′-hydroxylation, read-out: kinact, time-dependent inhibition of CYP2C19 [S]-mephenytoin 4′-hydroxylase (converted)", "result": 0.00044, "unit": "s⁻¹"}, {"measurement": "inhibition of CYP2C19-mediated [S]-mephenytoin 4′-hydroxylation", "setting": "CYP2C19; up to 50 µM, without 30-min preincubation, human liver microsomes", "result": "negligibly inhibited"}]}]}
